Laboratory results as given in ChEMBL document CHEMBL1128167, “(3R, 4S)-3-Benzyl-4-bromomethyloxetan-2-one, a fast acting alternate substrate inhibitor of -chymotrypsin” (Bioorg Med Chem Lett, 1995).
pKi: −log10 of the molar value.

Key:
Chymotrypsinogen B [1] = biological target: T1, Chymotrypsinogen B (Homo sapiens, UniProt P17538); assay: (§1) Inhibition of Alpha-chymotrypsin was determined by competitive substrate assay method
Chymotrypsinogen B [2] = biological target: T1, Chymotrypsinogen B; assay: as §1; remark: listed apart in the source

T1 sequence (P17538 34-164 limits assumed, other chains not shown): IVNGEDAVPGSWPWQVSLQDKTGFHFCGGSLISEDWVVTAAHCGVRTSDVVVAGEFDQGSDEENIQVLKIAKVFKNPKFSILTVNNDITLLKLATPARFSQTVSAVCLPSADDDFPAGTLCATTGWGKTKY
T1 sequence (P17538 167-263 limits assumed, other chains not shown): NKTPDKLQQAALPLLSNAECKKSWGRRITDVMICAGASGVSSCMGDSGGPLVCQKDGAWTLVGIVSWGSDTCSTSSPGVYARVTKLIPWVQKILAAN

Ka (Chymotrypsinogen B [1]): 2.94 min⁻¹
pKi (Chymotrypsinogen B [2]): 5.59
SMILES: O=C1O[C@H](CBr)[C@H]1Cc1ccccc1
